We go through 14 compounds from US8247556B2, “Method for preparing 6-substituted-7-aza-indoles” (Amgen Inc., priority 2005, dated 2012).

Where only a bound is given, the exact number is not on record here.

The subject of experiment [1] is VEGF-stimulated HUVEC proliferation (Human Umbilical Vein Endothelial cells). Description: HUVEC Proliferation Assay. The format is cell-based. As to conditions: VEGF 50 ng/mL, 72 h, CyQuant fluorescent dye, read-out: inhibited VEGF-stimulated HUVEC proliferation at a level. The essentials:
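HUVEC (passage 2–3) were seeded in DMEM+10% FBS for 22 h, then pre-incubated 2–3 h with 5-point, 5-fold compound dilutions (0.25% DMSO). They were then stimulated with VEGF (50 ng/mL final) for 72 h at 37 °C. Proliferation was read by CyQuant fluorescence (485/530 nm) after freeze-thaw, and IC50 came from a 4-parameter fit.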

The target in a further experiment is T1, CYP 2D6 (Homo sapiens, UniProt P10635).
T1 construct: followed by 555.6 ml of 20 mg/mL HLM (BD Gentest); tissue BD Gentest; host or cells: human liver microsomes
T1 sequence (P10635 whole entry): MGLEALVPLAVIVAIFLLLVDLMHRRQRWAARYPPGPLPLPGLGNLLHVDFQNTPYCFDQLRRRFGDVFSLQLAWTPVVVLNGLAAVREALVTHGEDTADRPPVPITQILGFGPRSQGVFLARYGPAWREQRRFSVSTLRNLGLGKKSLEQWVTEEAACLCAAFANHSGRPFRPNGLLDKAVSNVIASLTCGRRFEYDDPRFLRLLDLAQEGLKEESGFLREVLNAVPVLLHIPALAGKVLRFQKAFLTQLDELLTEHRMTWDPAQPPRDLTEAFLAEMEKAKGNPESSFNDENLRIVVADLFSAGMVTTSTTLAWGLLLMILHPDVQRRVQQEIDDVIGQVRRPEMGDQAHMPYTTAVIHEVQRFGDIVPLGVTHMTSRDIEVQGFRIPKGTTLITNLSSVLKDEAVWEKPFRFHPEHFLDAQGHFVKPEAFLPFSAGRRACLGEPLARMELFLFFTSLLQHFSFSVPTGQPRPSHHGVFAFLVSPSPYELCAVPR
Description: Human Liver Microsome CYP 2D6 Inhibition. The format is in vitro ADME. To be noted: human liver microsomes, bufuralol substrate; read-out: inhibited CYP2D6 microsomes, IC50. The essentials:
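Pooled human liver microsomes with bufuralol in potassium phosphate pH 7.4, preincubated with inhibitor at 37 °C; reaction started with NADPH, quenched after 5 min with 0.1% TFA in acetonitrile. 1′-OH-bufuralol quantified by LC-MS with deuterated internal standard; IC50 determined, quinidine 500 nM as control.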
On the technique in general: Liver microsomes are vesicles of endoplasmic reticulum, rich in cytochrome P450 enzymes.

A further experiment deals with T2, CYP 3A4 (Homo sapiens, UniProt P08684).
T2 construct: followed by 222.2 ml of 20 mg/mL HLM (BD Gentest); tissue BD Gentest; host or cells: human liver microsomes
T2 sequence (P08684 whole entry): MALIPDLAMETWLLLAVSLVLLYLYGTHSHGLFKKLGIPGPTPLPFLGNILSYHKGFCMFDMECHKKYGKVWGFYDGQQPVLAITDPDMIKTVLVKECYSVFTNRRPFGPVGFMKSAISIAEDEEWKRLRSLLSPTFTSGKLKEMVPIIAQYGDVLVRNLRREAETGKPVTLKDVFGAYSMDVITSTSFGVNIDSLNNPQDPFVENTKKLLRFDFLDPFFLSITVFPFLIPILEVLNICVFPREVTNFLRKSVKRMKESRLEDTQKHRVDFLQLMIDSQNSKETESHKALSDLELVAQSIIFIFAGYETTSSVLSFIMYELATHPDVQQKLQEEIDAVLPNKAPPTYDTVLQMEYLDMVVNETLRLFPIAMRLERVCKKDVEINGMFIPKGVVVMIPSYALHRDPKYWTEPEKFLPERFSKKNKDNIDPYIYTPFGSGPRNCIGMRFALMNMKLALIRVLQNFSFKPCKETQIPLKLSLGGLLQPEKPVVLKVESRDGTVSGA
The experiment is described as follows: Human Liver Microsome CYP 3A4 Inhibition. It is filed as in vitro ADME. To be noted: human liver microsomes, midazolam substrate; read-out: inhibited CYP3A4 microsomes, IC50.

Regarding `CN(C)CC(=O)Nc1cc(NC(=O)c2cccnc2NCc2ccnc3[nH]ccc23)ccc1C(C)(C)C` [Example 59, N-[4-tert-Butyl-3-(2-dimethylamino-acetylamino)-phenyl]-2-[(1H-pyrrolo[2,3-b]pyridin-4-ylmethyl)-amino]-nicotinamide], the IC50 was below 0.5 µM in experiment [1], above 20 µM on CYP 2D6 and above 20 µM at CYP 3A4.

On to `CC1(C)CCCNc2cc(NC(=O)c3cccnc3NCc3ccnc4[nH]ccc34)ccc21` [Example 64, N-(5,5-Dimethyl-2,3,4,5-tetrahydro-1H-benzo[b]azepin-8-yl)-2-[(1H-pyrrolo[2,3-b]pyridin-4-ylmethyl)-amino]-nicotinamide], for which the IC50 in experiment [1] is below 0.5 µM; on CYP 2D6 it was above 20 µM; at CYP 3A4, above 20 µM.

For `O=C(Nc1ccc(C(F)(F)F)cc1)c1cccnc1NCc1ccnc2[nH]ccc12` [Example 66, 2-[(1H-Pyrrolo[2,3-b]pyridin-4-ylmethyl)-amino]-N-(4-trifluoromethyl-phenyl)-nicotinamide], the IC50 in experiment [1] was below 0.5 µM; on CYP 2D6, above 20 µM; on CYP 3A4, above 20 µM.

With `O=C(Nc1ccc(C(F)(F)C(F)(F)F)cc1)c1cccnc1NCc1ccnc2[nH]ccc12` [Example 67, N-(4-pentafluoroethyl-phenyl)-2-[(1H-pyrrolo[2,3-b]pyridin-4-ylmethyl)-amino]-nicotinamide], the IC50 in experiment [1] was below 0.5 µM; on CYP 2D6 it was above 20 µM; at CYP 3A4, above 20 µM.

`O=C(Nc1ccc(C(F)(F)C(F)(F)F)cc1)c1cc(F)cnc1NCc1ccnc2[nH]ccc12` [Example 76, 5-fluoro-N-(4-(pentafluoroethyl)phenyl)-2-((1H-pyrrolo[2,3-b]pyridin-4-ylmethyl)amino)-3-pyridinecarboxamide]: the IC50 in experiment [1] is below 0.5 µM; on CYP 2D6, above 20 µM; on CYP 3A4 it was above 20 µM.

Take `Cc1cc(NC(=O)c2cc(F)cnc2NCc2ccnc3[nH]ccc23)ccc1C(C)C` [Example 83, 5-fluoro-N-(3-methyl-4-(1-methylethyl)phenyl)-2-((1H-pyrrolo[2,3-b]pyridin-4-ylmethyl)amino)-3-pyridinecarboxamide]: the IC50 is below 0.5 µM in experiment [1], above 20 µM at CYP 2D6 and above 20 µM at CYP 3A4.

For the compound `O=C(Nc1ccc(OC(F)(F)F)cc1)c1cc(F)cnc1NCc1ccnc2[nH]ccc12` [Example 96, 5-fluoro-2-((1H-pyrrolo[2,3-b]pyridin-4-ylmethyl)amino)-N-(4-((trifluoromethyl)oxy)phenyl)-3-pyridinecarboxamide], the IC50 is below 0.5 µM in experiment [1], above 20 µM on CYP 2D6 and above 20 µM at CYP 3A4.

`Cc1ccc(NC(=O)c2cc(F)cnc2NCc2ccnc3[nH]ccc23)cc1C(F)(F)F` [Example 112, 5-fluoro-N-(4-methyl-3-(trifluoromethyl)phenyl)-2-((1H-pyrrolo[2,3-b]pyridin-4-ylmethyl)amino)-3-pyridinecarboxamide]: the values for the IC50 (in experiment [1]; on CYP 2D6; at CYP 3A4) were below 0.5 µM, above 20 µM and above 20 µM, respectively.

As to `O=C(Nc1ccc(C(F)(F)F)cc1)c1cc(F)cnc1NCc1ccnc2[nH]ncc12` [Example 118, 5-Fluoro-2-((1H-pyrazolo[3,4-b]pyridin-4-ylmethyl)amino)-N-(4-(trifluoromethyl)phenyl)-3-pyridinecarboxamide], the IC50 in experiment [1] is below 0.5 µM; at CYP 2D6 it was above 20 µM; at CYP 3A4, above 20 µM.

With `Cc1cc(NC(=O)c2cc(F)cnc2NCc2ccnc3[nH]ncc23)ccc1C(C)C` [Example 121, 5-Fluoro-N-(3-methyl-4-(1-methylethyl)phenyl)-2-((1H-pyrazolo[3,4-b]pyridin-4-ylmethyl)amino)-3-pyridinecarboxamide], the IC50 is below 0.5 µM in experiment [1], above 20 µM at CYP 2D6 and above 20 µM at CYP 3A4.

As to `CC(C)c1ccc(NC(=O)c2cc(F)cnc2NCc2ccnc3[nH]ncc23)cc1` [Example 123, 5-Fluoro-N-(4-(1-methylethyl)phenyl)-2-((1H-pyrazolo[3,4-b]pyridin-4-ylmethyl)amino)-3-pyridinecarboxamide], the IC50 in experiment [1] is below 0.5 µM; on CYP 2D6, above 20 µM; at CYP 3A4, above 20 µM.

For the compound `CC(C)(C)c1ccc(NC(=O)c2cc(F)cnc2NCc2ccnc3[nH]ncc23)cc1` [Example 125, N-(4-(1,1-Dimethylethyl)phenyl)-5-fluoro-2-((1H-pyrazolo[3,4-b]pyridin-4-ylmethyl)amino)-3-pyridinecarboxamide], the figures for the IC50 (in experiment [1]; on CYP 2D6; at CYP 3A4) were below 0.5 µM, above 20 µM and above 20 µM, respectively.

On to `O=C(Nc1ccc(OC(F)(F)F)cc1)c1cc(F)cnc1NCc1ccnc2[nH]ncc12` [Example 126, 5-Fluoro-2-((1H-pyrazolo[3,4-b]pyridin-4-ylmethyl)amino)-N-(4-((trifluoromethyl)oxy)phenyl)-3-pyridinecarboxamide], for which the results for the IC50 (in experiment [1]; on CYP 2D6; on CYP 3A4) were below 0.5 µM, above 20 µM and above 20 µM, respectively.

For `CC1(C)CNc2cc(NC(=O)c3cc(F)cnc3NCc3ccnc4[nH]ccc34)ccc21` [Example 130, N-(3,3-Dimethyl-2,3-dihydro-1H-indol-6-yl)-5-fluoro-2-((1H-pyrrolo[2,3-b]pyridin-4-ylmethyl)amino)-3-pyridinecarboxamide], the IC50 in experiment [1] is below 0.5 µM; at CYP 2D6, above 20 µM; on CYP 3A4, above 20 µM.
